Reference: US5955501A, “Protein kinase C modulators O” (priority 1995, dated 1999)

Key:
[1] = tested on: diacylglycerol/phorboid-type binding sites in mouse skin and in purified preparations of protein kinase C isotypes; settings: Dunn and Blumberg; Ryves et al. 1991; cited from earlier work
[2] = tested on: phorbol 12-myristate 13-acetate induced ear inflammation/erythema; assay: Mouse ear inflammation test: inhibition of phorbol 12-myristate 13-acetate induced inflammation/erythema; type: in vivo, mice
Experimental: Method: A stock solution of 300 pmoles of the standard inflammatory compound phorbol 12-myristate 13-acetate per 5 μL acetone was prepared. This solution was used to prepare four-fold dilutions of 20-deoxy-20-(2'-hydroxyethylthio)phorbol 12-myristate 13-acetate, prepared as in Example 3, covering concentrations of the latter ranging from 4 to 64,000 pmoles per 5 μL.

[3] = tested on: HL-60 promyelocytic leukemia cells; assay: Anti-leukemic activity: MTT cell growth assay; type: cell-based; settings: Homo sapiens, HL-60, 192 h, 8 days incubation, read-out: IC50 (drug concentration which leads to 50% of cells per well compared to control cultures)
Experimental: HL-60 promyelocytic leukemia cells were cultured in RPMI 1640 medium supplemented with 10% fetal bovine serum. Cells (7,500) were seeded into 96-well microtiter plates and incubated overnight. Serial dilutions of 20-deoxy-20-(2'-hydroxyethylthio)phorbol 12-myristate 13-acetate (dissolved in DMSo and then diluted with culture medium) were added to the wells on day 1. The plates were incubated for 8 days to allow the control cultures to undergo at least 3 cell divisions. The cell growth was monitored by using the calorimetric MTT (tetrazolium) assay [Mosmann, T., J. Immunol. Meth. 65: 55-63 (1983)]. After the incubation period, the cells were washed with phosphate-buffered saline in the microtiter plate. DMSO was then added to each well and the dish was put on a shaker for 20 min. The optical density was measured at 540 nm and compared using the formula:(OD Test OD Start)/(OD Control - OD Start) x 100.

[4] = tested on: T-24 human bladder carcinoma cells; assay: Anti-cancer activity: methylene blue cell growth assay; type: cell-based; settings: 5-6 days incubation, methylene blue staining, read-out: IC50 (drug concentration which leads to 50% of cells per well compared to control cultures)
Experimental: T-24 human bladder carcinoma cells were cultured in Eagle's minimal essential medium supplemented with 5% fetal bovine serum. Cells (1,000) were seeded into 96-well microtiter plates and incubated overnight. Serial dilutions of 20-deoxy-20(2'-hydroxyethylthio)phorbol 12-myristate 13-acetate (dissolved in DMSO and then diluted with culture medium) were added to the wells on day 1. The plates were incubated for 5-6 days to allow the control cultures to undergo at least 3 cell divisions. After the incubation period, the cells were fixed with glutaraldehyde, washed with water and stained with 0.05% methylene blue. After washing the dye was eluted with 3% HCl. The optical density per well was measured at 665 nm and compared using the formula:(OD Test-OD Start)/(OD Control-OD Start)×100.

[5] = tested on: diacylglycerol site; assay: Diacylglycerol site binding activity (test not described at the place)
[6] = Anti-viral properties (test not described at the place)
[7] = tested on: Human RPMI-7272 melanoma cells; assay: Anti-melanoma activity: inhibition of cell doublings; type: cell-based; settings: 72 h of exposure, read-out: ID50 (concentration of drug required to inhibit cell doublings by 50%)
Experimental: Human RPMI-7272 melanoma cells were grown in the standard culture medium under normal incubation conditions. On day 1 the cells were cultured in the absence (control) or presence of graded concentrations (3-100 μg/ml) of 20-deoxy-20-(2'-hydroxyethylthio)phorbol 12-myristate 13-acetate in separate tubes. On day 4 after 72 h of exposure the number of cells in each tube was measured and the number of cell doublings determined. The drug treated tubes were compared to the control tube.

[8] = tested on: HIV; assay: Anti-HIV activity in HIV-infected human peripheral blood lymphocytes (supernatant viral RNA and p24 core protein); type: cell-based; settings: Human immunodeficiency virus 1, Lymphocyte; from dose-response curves or by estimation from one or more experimental drug concentrations; read-out: anti-HIV ED50 for RNA
Experimental: Human peripheral blood lymphocytes were isolated from the buffy coat fractions of blood donations. The lymphocytes were then stimulated with 5 μg/ml of phytohemagglutinin for 48 hours. Prior to infection with HIV, the lymphocytes were washed and resuspended in mitogen-free medium. On day 0 the cells were infected with HIV and were cultured for four days in the presence or absence of graded concentrations of 20-deoxy-20-chlorophorbol 12,13-bis[(2',4'-difluorophenyl)acetate]. On days 3 and 4 the supernatant levels of total viral RNA and viral core protein p24 were determined at each drug concentration and dose-response curves were used to determine the concentration of drug giving 50% inhibition of production of viral RNA and of p24 core protein. At four days these ED50 values were less than 100 pM for both RNA and p24.
(§1) In a manner similar to Example 111, the anti-HIV ED50 values for RNA [drug concentration is in brackets] for the following diterpenoid compounds were determined from dose-response curves or by estimation from one or more experimental drug concentrations.
as §1, with “indolactam-type” for “diterpenoid”, “concentrations, data giving percent inhibition of viral RNA production at selected concentrations appear in parentheses:” for “concentrations.”
as §1, with “diacylglycero-type” for “diterpenoid”, “concentrations; data giving percent inhibition of viral RNA production at selected concentrations appear in parentheses: […]” for “concentrations.”

In the case of `CC1=C[C@H]2[C@@]3(O)[C@H](C)C[C@]4(OC(=O)C(C)C)[C@H]([C@@H]3C=C(CO)C[C@]2(O)C1=O)C4(C)C` [12-deoxyphorbol 13-isobutyrate], the “selectivity factor in dissociation constant among the different binding sites” value [1] is listed as 10-1000.

In the case of `CC1=C[C@H]2[C@@]3(O)[C@H](C)C[C@]4(OC(=O)Cc5ccccc5)[C@H]([C@@H]3C=C(CO)C[C@]2(O)C1=O)C4(C)C` [12-deoxyphorbol 13-phenylacetate], the “selectivity factor in dissociation constant among the different binding sites” value [1] is given as 10-1000.

With `C=C1C[C@]2(O)C(=O)C(C)=C[C@H]2[C@@]2(O)[C@H](C)[C@@H](OC(=O)CCCCCCCCCCCCC)[C@]3(OC(C)=O)[C@H]([C@@H]2C1CO)C3(C)C` (stereo partly drawn) [12-β-myristoyloxy-13-acetoxy-4,9-dihydroxy-7-hydroxymethyl-1,6(20)-tigliadien-3-one] the anti-inflammatory activity ([2]; general statement in the description, test not named there) was “good anti-inflammatory activity”, the IC50 [3] was 5.2 µM and the IC50 [4] was 5.5 µM.

For `CCCCCCCCCCCCCC(=O)O[C@@H]1[C@@H](C)[C@@]2(O)[C@@H](C=C(CCC3=C[C@H]4[C@@H]5C(C)(C)[C@]5(OC(C)=O)[C@H](OC(=O)CCCCCCCCCCCCC)[C@@H](C)[C@]4(O)[C@@H]4C=C(C)C(=O)[C@@]4(O)C3)C[C@]3(O)C(=O)C(C)=C[C@@H]23)[C@@H]2C(C)(C)[C@]12OC(C)=O` [20-Deoxy-20-[20'-deoxyphorbol-20'-yl(12'-myristate 13'-acetate)]phorbol 12-Myristate 13-Acetate], the “diacylglycerol site binding activity” value [5] was “still exhibits diacylglycerol site binding activity” and the anti-viral properties [6] was “anti-viral properties”.

For `CCCCCCCCCCCCCC(=O)O[C@@H]1[C@@H](C)[C@@]2(O)[C@@H](C=C(CSCCO)C[C@]3(O)C(=O)C(C)=C[C@@H]23)[C@@H]2C(C)(C)[C@]12OC(C)=O` [20-deoxy-20-(2'-hydroxyethylthio)phorbol 12-myristate 13-acetate], the “inhibition of phorbol 12-myristate 13-acetate induced ear inflammation/erythema” value ([2]; applied with 300 pmoles phorbol 12-myristate 13-acetate per 5 μL acetone to inside of right ear, observed 1 to 48 hours) was “Inhibition of the phorbol 12-myristate 13-acetate induced inflammation was observed at the medium and higher concentrations”, the IC50 [7] was 42 µM and the IC50 [3] was 5.4 µM. It also gave an IC50 [4] of 13 µM.

`CCCCCCCCCCCCCC(=O)O[C@@H]1[C@@H](C)[C@@]2(O)[C@@H](C=C(CC#N)C[C@]3(O)C(=O)C(C)=C[C@@H]23)[C@@H]2C(C)(C)[C@]12OC(C)=O` [20-deoxy-20-cyanophorbol 12-myristate 13-acetate] gave an EC50 [8] of 1.5 µM and an IC50 [4] of 2 µM.

For `CC1=C[C@H]2[C@@]3(O)[C@H](C)[C@@H](OC(=O)Cc4c(F)c(F)c(F)c(F)c4F)[C@]4(OC(=O)Cc5c(F)c(F)c(F)c(F)c5F)[C@H]([C@@H]3C=C(CF)C[C@]2(O)C1=O)C4(C)C` [20-deoxy-20-fluorophorbol 12,13-bis[(pentafluorophenyl)acetate]], the EC50 [8] was 0.001 µM.

`CC1=C[C@H]2[C@@]3(O)[C@H](C)[C@@H](OC(=O)Cc4ccc(F)cc4F)[C@]4(OC(=O)Cc5ccc(F)cc5F)[C@H]([C@@H]3C=C(C=NO)C[C@]2(O)C1=O)C4(C)C` [20-deoxy-20-hydroximinophorbol 12,13-bis[(2',4'-difluorophenyl)acetate]] showed an EC50 [8] of 5.5 µM.

With `CCCSCC1=C[C@H]2[C@@H]3C(C)(C)[C@]3(OC(=O)Cc3ccc(F)cc3F)[C@H](OC(=O)Cc3ccc(F)cc3F)[C@@H](C)[C@]2(O)[C@@H]2C=C(C)C(=O)[C@@]2(O)C1` [20-deoxy-20-propylthiophorbol 12,13-bis[(2',4'-difluorophenyl)acetate]] the EC50 [8] was 0.01 µM.

For `CCCC(=O)O[C@@H]1[C@@H](C)[C@@]2(O)[C@@H](C=C(CO)C[C@]3(O)C(=O)C(C)=C[C@@H]23)[C@@H]2C(C)(C)[C@]12OC(=O)CCC` [phorbol 12,13-dibutyrate], the “selectivity factor in dissociation constant among the different binding sites” value [1] is given as 10-1000.

With `CCCCCCCCCCCCCC(=O)O[C@@H]1[C@@H](C)[C@@]2(O)[C@@H](C=C(COC(=O)Nc3ccc(F)c([N+](=O)[O-])c3)C[C@]3(O)C(=O)C(C)=C[C@@H]23)[C@@H]2C(C)(C)[C@]12OC(C)=O` [phorbol 12-myristate 13-acetate 20-(4'-fluoro-3'-nitrophenyl)carbamate] the EC50 [8] was 4 µM.

For `CCCCCCCCCCCCCC(=O)O[C@@H]1[C@@H](C)[C@@]2(O)[C@@H](C=C(COC(=O)NC)C[C@]3(O)C(=O)C(C)=C[C@@H]23)[C@@H]2C(C)(C)[C@]12OC(C)=O` [phorbol 12-myristate 13-acetate 20-methylcarbamate], the IC50 [3] was 2.6 µM and the IC50 [4] was 6.3 µM.

In the case of thymeleatoxin, the “selectivity factor in dissociation constant among the different binding sites” value [1] is given as 10-1000.
